Source: US9243254B2, “Method for transforming a bacterium belonging to the streptococcus genus by natural competence” (priority 2009, dated 2016)

Legend:
[1] = system: LMD9-Δblp::PcomX-luxABΔshp316::P32-cat; assay: Natural transformation in CDM of the shp316-deleted strain upon addition of synthetic peptides (test A); assay type: cell-based, Streptococcus thermophilus; settings: 1 μM synthetic peptide; for Transformation rate, With peptide addition: 1 μg/mL pGIUD0855ery, CDM, erythromycin selection; for Restoration of the competence defect: result in words
Protocol: A mutant strain of LMD-9 in which the shp316 gene (which is the gene encoding the peptide Shp316) has been inactivated, such as strain LMD9-Δblp::PcomX-luxABΔshp316::P32-cat (see Example 2 for details on this strain) is pre-cultivated in M17-lactose medium. The cells of the preculture are harvested (5000 g, 9 minutes, 20° C.) and washed twice in Chemically Defined Medium (CDM, see Annex I) and then resuspended in CDM. The washed cells are diluted in fresh CDM medium to obtain an optical density of 0.05 at 600 nm, and then incubated at 37° C. After 1.5 h of incubation, the culture is separated in 2 aliquots of 10 mL and 0 or 1000 nM of peptide are added in the culture samples. Finally, each 10 mL-aliquot is divided in 2 samples of 5 mL each. One of the 2 samples receives 1 μg/mL pGIUD0855ery, a plasmid bearing an erythromycin resistance gene. The competence phenotype of the samples is studied by performing natural transformation experiments as described in example 1. The cultures are grown for 6 hours and serial dilutions are plated on the surface of M17-lactose agar medium containing or not 2.5 μg/mL of erythromycin. The transformation rate in the presence or absence of peptide is calculated for each sample; it is expressed as the ratio of erythromycin-resistant cells among the total bacterial population.
The experimental strategy is described below. Strain LMD9-Δblp::PcomX-luxABΔshp316::P32-cat is precultivated in M17-lactose medium. The cells of the preculture were harvested (5000 g, 9 minutes, 20° C.) and washed twice in CDM and then resuspended in CDM. The washed cells are diluted in fresh CDM to obtain an optical density of 0.05 at 600 nm, and then incubated at 37° C. After 1.5 h of incubation, in one set of experiment, 1 μM of one of the tested synthetic peptides and 1 μg/mL of pGIUD0855ery were added to the culture; whereas 1 μg/mL of pGIUD0855ery but no synthetic peptide was added to the second set of experiment. The cultures were grown during 6 hours and serial dilutions were plated on the surface of M17-lactose agar medium containing 2.5 μg/mL of erythromycin to measure transformation efficiency.
Ability of peptides derived from Shp316 to restore the competence defect of LMD9-Δblp::PcomX-luxABΔshp316::P32-cat was further investigated focusing on the synthetic peptide PYFAGCL. Experimental work was performed as described above except that various concentrations of PYFAGCL were used: 0 nM, 1 nM, 10 nM, 100 nM, 500 nM, 1 μM, 2.5 μM and 5 μM. […]

[2] = system: S. salivarius JIM8777; assay: Natural transformation in CDM upon addition of synthetic peptide; assay type: cell-based, Streptococcus salivarius
Protocol: (§1) Similarly to the protocol used in example 4, strains LMD-9, LMG18311, CNRZ1066 and JIM8777 were pre-cultivated in M17-lactose medium. The cells of the precultures were harvested (5000 g, 9 minutes, 20° C.) and washed twice in CDM and then resuspended in CDM. The washed cells were diluted in fresh CDM medium to obtain an optical density of 0.05, and then incubated at 37° C. After 1.5 h of incubation, in one set of experiment, 1 μM of one of the tested synthetic peptides and 1 μg/mL of pGIUD0855ery DNA (in case of S. thermophilus strains), or 1 μg/ml of pG+host09 DNA (in case of S. salivarius strains) were added to the culture, whereas 1 μg/mL of DNA but no synthetic peptide was added to the second set of experiment. The cultures were grown during 6 hours and serial dilutions were plated on the surface of M17-lactose agar medium containing 2.5 μg/mL of erythromycin to measure transformation efficiency. Transformed S. thermophilus and S. salivarius cells are selected at 37° C. and 29° C., respectively.
Day 2: • Centrifuge Day 1—culture (centrifugation parameters: 5000 g, 9 minutes, 15° C.) and perform two washing steps with one volume (10 mL) of CDM (centrifugation parameters: 5000 g, 9 minutes, 15° C.). • Dilute the culture in 10 mL CDM to obtain an OD600nm of 0.05. • A small volume of S. thermophilus cultures (300 μL) is then transferred in white microplate with a transparent bottom (655095; Greiner, Alphen aid Rijn, The Netherlands) and is grown at 37° C. Luminescence at 595 nm and optical density at 600 nm are recorded with the automatic Synergy HT multi-mode microplate reader. The luciferase activity catalysed by LuxAB requires the presence of nonanal as substrate. In this experimental set-up, nonanal (Acros Organics ref. 204-688-5) is supplied to the cultures by placing 50 μL of a solution containing 1% nonanal diluted in mineral oil in the spaces between the wells of a covered microplate (11). The nonanal present in the solution will become volatile and there will be an equilibrium between the concentration of nonanal present in the air and in the culture samples. The luminescence and absorbance are scanned every 10 minutes during 6 hours. • To perform a competence experiment, 1 μg of donor DNA is added in the 300 μL samples in the beginning of incubation. […] In case of the sample that received DNA, make different 10-fold dilutions of the sample and plate 100 μL on the same solid selective medium. Check the viability of the cells in the samples by plating 10 μL of serial 10-fold dilutions of the cultures on M17, lactose 1% medium. Transformants are picked following 24 h of incubation at 37° C. in anaerobic conditions (gaspak BBL). […]

[3] = system: S. thermophilus CNRZ1066; assay: as above; assay type: cell-based, Streptococcus thermophilus
Protocol: as §1
Similarly to the protocol used in example 4, various S. thermophilus strains, including LMD-9, CNRZ1066 and LMG18311 used as controls, were pre-cultivated in M17-lactose medium. The cells of the precultures were harvested (5000 g, 9 minutes, 20° C.) and washed twice in CDM and then resuspended in CDM. The washed cells were diluted in fresh CDM medium to obtain an optical density of 0.05, and then incubated at 37° C. After 1.5 h of incubation, in one set of experiment, 1 μM of one of the tested synthetic peptides (LPYFAGCL) (SEQ ID NO: 85) and 1 μg/mL of pGIUD0855cat DNA were added to the culture, whereas 1 μg/mL of DNA but no synthetic peptide was added to the second set of experiment. Plasmid pGIUD0855cat is a pUC18-derivative containing a chloramphenicol resistance cassette flanked by 1-kb fragments corresponding to the upstream and downstream regions of stu0855. Upon transformation, it promotes the genetic replacement of stu0855 by P32-cat through homologous recombination (FIG. 7). The cultures were grown during 6 hours and serial dilutions were plated on the surface of M17-lactose agar medium containing 5 μg/mL of chloramphenicol to measure transformation efficiency. Transformed S. thermophilus cells were selected at 37° C.; when transformants were obtained, the transformation efficiency was calculated and is given in Table 9.
Day 2: • Centrifuge Day 1—culture (centrifugation parameters: 5000 g, 9 minutes, 15° C.) and perform two washing steps with one volume (10 mL) of CDM (centrifugation parameters: 5000 g, 9 minutes, 15° C.). • Dilute the culture in 10 mL CDM to obtain an OD600nm of 0.05. • A small volume of S. thermophilus cultures (300 μL) is then transferred in white microplate with a transparent bottom (655095; Greiner, Alphen aid Rijn, The Netherlands) and is grown at 37° C. Luminescence at 595 nm and optical density at 600 nm are recorded with the automatic Synergy HT multi-mode microplate reader. The luciferase activity catalysed by LuxAB requires the presence of nonanal as substrate. In this experimental set-up, nonanal (Acros Organics ref. 204-688-5) is supplied to the cultures by placing 50 μL of a solution containing 1% nonanal diluted in mineral oil in the spaces between the wells of a covered microplate (11). […] The luminescence and absorbance are scanned every 10 minutes during 6 hours. • To perform a competence experiment, 1 μg of donor DNA is added in the 300 μL samples in the beginning of incubation. […]

[4] = 1 μM PYFTGCL, 1 μg/mL pG+host09

ILPYFAGCL (fragment) [synthetic peptide corresponding to a C-terminal fragment of Shp316]
Transformation rate, With peptide addition [1]: 3.42 × 10^−3
Restoration of the competence defect [1]: allowed to restore the competence defect

PYFTGCL (fragment) [alanine in position 4 replaced by threonine]
Transformation rate, With peptide addition [2, 4]: 5.77 × 10^−7
Complementation of the transformation defect in CDM ([2]; 1 μM peptide, result in words): able to complement the transformation defect
Transformation rate, With peptide addition [3, 4]: 3.48 × 10^−7
Complementation of the transformation defect in CDM ([3]; 1 μM peptide, result in words): able to complement the transformation defect

PYFAGC (fragment) [synthetic peptide, fragment of Shp316 without the carboxy-terminal leucine]
Transformation rate, With peptide addition [1]: <10^−8

PYFAG (fragment) [synthetic peptide corresponding to a fragment of Shp316 without the C-terminal CL]
Transformation rate, With peptide addition [1]: <10^−8

AILPYFAGCL (fragment) [synthetic peptide corresponding to a C-terminal fragment of Shp316]
Transformation rate, With peptide addition [1]: 2.21 × 10^−3
Restoration of the competence defect [1]: allowed to restore the competence defect

LPYFAGC (fragment) [synthetic peptide, fragment of Shp316 without the carboxy-terminal leucine]
Transformation rate, With peptide addition [1]: <10^−8

ILPYFAGC (fragment) [synthetic peptide, fragment of Shp316 without the carboxy-terminal leucine]
Transformation rate, With peptide addition [1]: <10^−8

AILPYFAGC (fragment) [synthetic peptide, fragment of Shp316 without the carboxy-terminal leucine]
Transformation rate, With peptide addition [1]: <10^−8

ILPYFAG (fragment) [synthetic peptide corresponding to a fragment of Shp316 without the C-terminal CL]
Transformation rate, With peptide addition [1]: <10^−8
